Key:
Type in all cases: biochemical
SGK1 = target: T1, SGK1 (Homo sapiens, UniProt O00141); test: Kinase profiling SGK1; conditions: 100 micromolar inhibitor concentration; 100 is no change
T1 sequence (O00141 1-431): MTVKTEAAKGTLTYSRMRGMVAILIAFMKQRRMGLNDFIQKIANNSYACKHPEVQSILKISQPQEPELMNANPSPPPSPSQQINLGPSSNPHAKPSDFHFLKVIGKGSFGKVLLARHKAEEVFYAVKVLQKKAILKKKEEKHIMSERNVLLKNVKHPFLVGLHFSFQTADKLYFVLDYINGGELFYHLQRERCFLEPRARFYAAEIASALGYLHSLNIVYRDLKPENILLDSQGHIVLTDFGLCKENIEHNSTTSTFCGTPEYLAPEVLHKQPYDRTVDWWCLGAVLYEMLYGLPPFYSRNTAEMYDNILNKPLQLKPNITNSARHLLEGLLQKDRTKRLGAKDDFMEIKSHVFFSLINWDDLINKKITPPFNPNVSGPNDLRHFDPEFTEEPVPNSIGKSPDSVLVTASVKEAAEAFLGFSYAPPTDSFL
Excerpt: (§1) Any value less that 25 is considered to be highly significant inhibition.

PKA = PKA (Homo sapiens, UniProt P17612); test: Kinase profiling PKA; conditions: 100 micromolar inhibitor concentration; 100 is no change
Excerpt: as §1

JNK1 = JNK1 (Homo sapiens, UniProt P45983); test: Kinase profiling JNK1; conditions: 100 micromolar inhibitor concentration; 100 is no change
Excerpt: as §1

PDK1 = target: T2, PDK1 (Homo sapiens, UniProt O15530); test: Kinase profiling PDK1; conditions: 100 micromolar inhibitor concentration; 100 is no change
T2 sequence (O15530 1-556): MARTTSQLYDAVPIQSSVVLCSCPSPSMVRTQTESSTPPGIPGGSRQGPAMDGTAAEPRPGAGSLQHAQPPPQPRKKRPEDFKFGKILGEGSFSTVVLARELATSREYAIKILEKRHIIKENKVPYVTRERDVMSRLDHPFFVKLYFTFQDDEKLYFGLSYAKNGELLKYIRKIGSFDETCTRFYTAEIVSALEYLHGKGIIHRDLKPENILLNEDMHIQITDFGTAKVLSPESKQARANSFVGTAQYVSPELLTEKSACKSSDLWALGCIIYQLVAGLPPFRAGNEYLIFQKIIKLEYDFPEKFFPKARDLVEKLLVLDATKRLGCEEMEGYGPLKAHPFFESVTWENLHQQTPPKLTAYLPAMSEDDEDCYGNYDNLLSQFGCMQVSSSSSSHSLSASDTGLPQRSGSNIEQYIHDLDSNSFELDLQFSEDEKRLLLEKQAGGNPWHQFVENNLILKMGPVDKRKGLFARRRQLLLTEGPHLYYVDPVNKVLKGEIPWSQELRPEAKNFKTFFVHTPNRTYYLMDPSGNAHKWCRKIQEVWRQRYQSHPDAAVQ
Excerpt: as §1

PKBa = PKBa (Homo sapiens, UniProt P31749); test: Kinase profiling PKBa; conditions: 100 micromolar inhibitor concentration; 100 is no change
Excerpt: as §1

PRK2 = PRK2 (Homo sapiens, UniProt Q16513); test: Kinase profiling PRK2; conditions: 100 micromolar inhibitor concentration; 100 is no change
Excerpt: as §1

PKD1 = target: T3, PKD1 (Homo sapiens, UniProt Q15139); test: Kinase profiling PKD1; conditions: 100 micromolar inhibitor concentration; 100 is no change
T3 sequence (Q15139 1-912): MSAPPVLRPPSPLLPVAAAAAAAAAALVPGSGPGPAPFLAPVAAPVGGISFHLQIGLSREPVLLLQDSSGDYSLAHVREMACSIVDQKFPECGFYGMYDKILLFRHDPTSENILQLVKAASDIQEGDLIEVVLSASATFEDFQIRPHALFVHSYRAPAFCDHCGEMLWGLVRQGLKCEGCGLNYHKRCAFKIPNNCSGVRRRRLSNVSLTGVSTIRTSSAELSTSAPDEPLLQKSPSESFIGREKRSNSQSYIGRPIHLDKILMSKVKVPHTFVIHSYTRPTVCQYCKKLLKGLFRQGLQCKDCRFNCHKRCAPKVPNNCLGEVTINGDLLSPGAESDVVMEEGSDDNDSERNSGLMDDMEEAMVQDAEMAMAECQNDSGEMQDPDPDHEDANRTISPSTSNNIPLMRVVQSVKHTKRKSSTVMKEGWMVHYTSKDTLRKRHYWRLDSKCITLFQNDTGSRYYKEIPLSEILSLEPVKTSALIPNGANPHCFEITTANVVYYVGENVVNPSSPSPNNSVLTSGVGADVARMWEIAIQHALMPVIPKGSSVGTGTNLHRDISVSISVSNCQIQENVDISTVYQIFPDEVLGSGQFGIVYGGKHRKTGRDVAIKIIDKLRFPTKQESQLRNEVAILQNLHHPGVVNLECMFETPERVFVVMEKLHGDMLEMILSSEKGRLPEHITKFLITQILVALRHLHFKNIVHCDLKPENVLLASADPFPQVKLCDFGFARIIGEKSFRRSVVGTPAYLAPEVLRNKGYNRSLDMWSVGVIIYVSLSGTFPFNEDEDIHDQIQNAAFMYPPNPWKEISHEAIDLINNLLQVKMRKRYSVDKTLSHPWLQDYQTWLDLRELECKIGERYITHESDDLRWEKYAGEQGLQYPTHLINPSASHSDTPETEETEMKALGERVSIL
Excerpt: as §1

RSK1 = RSK1 (Homo sapiens, UniProt Q15418); test: Kinase profiling RSK1; conditions: 100 micromolar inhibitor concentration; 100 is no change
Excerpt: as §1

p38a MAPK = p38a MAPK (Homo sapiens, UniProt Q16539); test: Kinase profiling p38a MAPK; conditions: 100 micromolar inhibitor concentration; 100 is no change
Excerpt: as §1

ROCK 2 = ROCK 2 (Homo sapiens, UniProt O75116); test: Kinase profiling ROCK 2; conditions: 100 micromolar inhibitor concentration; 100 is no change
Excerpt: as §1

PKCa = PKCa (Homo sapiens, UniProt P17252); test: Kinase profiling PKCa; conditions: 100 micromolar inhibitor concentration; 100 is no change
Excerpt: as §1

MKK1 = MKK1 (Homo sapiens, UniProt Q02750); test: Kinase profiling MKK1; conditions: 100 micromolar inhibitor concentration; 100 is no change
Excerpt: as §1

S6K1 = S6K1 (Homo sapiens, UniProt P23443); test: Kinase profiling S6K1; conditions: 100 micromolar inhibitor concentration; 100 is no change
Excerpt: as §1

DYRK1A = DYRK1A (Homo sapiens, UniProt Q13627); test: Determination of IC50 values against DYRK1a; conditions: average of duplicate; 10 concentrations 100 μM to 0.003 μM; read-out: IC 50 against DYRK1a
Method: The kinase assay was carried out using Multidrop 384's at room temperature in a total assay volume of 25.5 μl. To plates containing 0.5 μl of compounds, DMSO controls or acid blanks, 15 μl of an enzyme mix containing the DYRK1a enzyme and peptide/protein substrate in buffer was added. Compounds were pre-incubated in the presence of the enzyme and peptide/protein substrate for 5 minutes before initiation of the reaction by addition of 10 μl of ATP (final concentration selected for each kinase at 5, 20 or 50 μM). Assays were carried out for 30 minutes at room temperature before termination by the addition of 5 μl orthophosphoric acid. The assay plates were then harvested onto P81 Unifilter Plates by a Packard Harvester (wash buffer is 50 mM orthophosphoric acid) and dried in air. The dry Unifilter plates were then sealed by the addition of MicroScint O and counted in Packard Topcount NXT scintillation counters.

PRK2, sequence (Q16513 whole entry, species assumed): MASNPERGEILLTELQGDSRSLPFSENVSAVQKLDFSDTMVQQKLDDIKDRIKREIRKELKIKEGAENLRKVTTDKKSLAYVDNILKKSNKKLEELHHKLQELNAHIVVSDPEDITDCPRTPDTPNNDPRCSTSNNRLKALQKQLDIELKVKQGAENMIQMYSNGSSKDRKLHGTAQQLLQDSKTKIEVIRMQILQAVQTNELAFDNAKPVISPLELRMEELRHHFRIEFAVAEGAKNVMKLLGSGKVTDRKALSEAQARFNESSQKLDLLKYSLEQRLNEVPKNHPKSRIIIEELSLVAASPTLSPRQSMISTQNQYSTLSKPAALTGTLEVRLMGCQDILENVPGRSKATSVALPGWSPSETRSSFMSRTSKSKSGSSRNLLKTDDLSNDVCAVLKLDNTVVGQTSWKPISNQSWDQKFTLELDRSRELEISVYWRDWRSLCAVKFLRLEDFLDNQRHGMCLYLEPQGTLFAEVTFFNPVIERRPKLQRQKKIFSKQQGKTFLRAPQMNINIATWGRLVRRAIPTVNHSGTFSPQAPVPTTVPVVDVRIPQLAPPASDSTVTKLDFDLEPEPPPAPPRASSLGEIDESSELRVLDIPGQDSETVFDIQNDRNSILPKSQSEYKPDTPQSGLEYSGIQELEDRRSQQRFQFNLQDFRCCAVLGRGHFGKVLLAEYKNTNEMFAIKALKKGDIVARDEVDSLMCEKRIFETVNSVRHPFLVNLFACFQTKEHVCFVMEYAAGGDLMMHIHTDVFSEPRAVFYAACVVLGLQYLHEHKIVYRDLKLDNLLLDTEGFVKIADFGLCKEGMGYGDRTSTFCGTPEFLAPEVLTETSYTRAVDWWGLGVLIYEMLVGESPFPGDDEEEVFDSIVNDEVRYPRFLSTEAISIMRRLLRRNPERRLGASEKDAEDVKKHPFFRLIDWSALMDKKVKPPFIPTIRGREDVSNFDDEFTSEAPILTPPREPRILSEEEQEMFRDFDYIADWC
p38a MAPK, sequence (Q16539 whole entry): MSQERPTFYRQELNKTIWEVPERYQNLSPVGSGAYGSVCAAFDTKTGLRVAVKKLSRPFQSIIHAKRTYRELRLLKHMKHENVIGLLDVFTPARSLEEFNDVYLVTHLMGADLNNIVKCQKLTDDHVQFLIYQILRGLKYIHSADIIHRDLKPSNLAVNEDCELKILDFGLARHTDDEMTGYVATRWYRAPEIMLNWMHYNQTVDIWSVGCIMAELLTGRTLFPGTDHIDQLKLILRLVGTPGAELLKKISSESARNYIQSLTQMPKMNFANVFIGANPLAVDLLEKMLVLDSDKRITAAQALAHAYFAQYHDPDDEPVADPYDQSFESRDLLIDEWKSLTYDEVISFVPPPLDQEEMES
JNK1, sequence (P45983 whole entry, species assumed): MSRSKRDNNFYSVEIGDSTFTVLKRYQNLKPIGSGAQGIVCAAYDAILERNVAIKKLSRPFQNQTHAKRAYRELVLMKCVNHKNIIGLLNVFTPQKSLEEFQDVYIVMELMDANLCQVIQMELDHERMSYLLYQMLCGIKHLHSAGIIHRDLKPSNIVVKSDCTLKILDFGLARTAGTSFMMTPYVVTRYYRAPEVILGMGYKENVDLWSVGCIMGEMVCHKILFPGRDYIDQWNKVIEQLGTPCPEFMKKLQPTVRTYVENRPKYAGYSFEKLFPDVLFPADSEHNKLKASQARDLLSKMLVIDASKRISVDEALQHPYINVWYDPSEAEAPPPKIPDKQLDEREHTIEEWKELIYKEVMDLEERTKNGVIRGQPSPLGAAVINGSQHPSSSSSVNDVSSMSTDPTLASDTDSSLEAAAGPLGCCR
S6K1, sequence (P23443 whole entry, species assumed): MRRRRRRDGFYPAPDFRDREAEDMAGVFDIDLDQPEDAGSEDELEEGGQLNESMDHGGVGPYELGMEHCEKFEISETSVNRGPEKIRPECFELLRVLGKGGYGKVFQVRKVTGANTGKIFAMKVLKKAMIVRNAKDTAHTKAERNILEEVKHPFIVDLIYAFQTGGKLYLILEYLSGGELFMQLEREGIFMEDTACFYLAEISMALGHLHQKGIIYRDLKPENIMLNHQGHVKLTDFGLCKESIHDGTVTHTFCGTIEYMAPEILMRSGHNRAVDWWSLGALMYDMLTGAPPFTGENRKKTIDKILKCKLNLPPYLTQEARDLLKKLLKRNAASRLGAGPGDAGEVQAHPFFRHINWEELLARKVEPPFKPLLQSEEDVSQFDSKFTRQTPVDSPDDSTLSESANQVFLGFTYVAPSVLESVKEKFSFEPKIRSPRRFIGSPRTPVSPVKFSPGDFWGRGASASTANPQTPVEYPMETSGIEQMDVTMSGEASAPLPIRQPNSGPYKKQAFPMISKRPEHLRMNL
PKBa, sequence (P31749 whole entry): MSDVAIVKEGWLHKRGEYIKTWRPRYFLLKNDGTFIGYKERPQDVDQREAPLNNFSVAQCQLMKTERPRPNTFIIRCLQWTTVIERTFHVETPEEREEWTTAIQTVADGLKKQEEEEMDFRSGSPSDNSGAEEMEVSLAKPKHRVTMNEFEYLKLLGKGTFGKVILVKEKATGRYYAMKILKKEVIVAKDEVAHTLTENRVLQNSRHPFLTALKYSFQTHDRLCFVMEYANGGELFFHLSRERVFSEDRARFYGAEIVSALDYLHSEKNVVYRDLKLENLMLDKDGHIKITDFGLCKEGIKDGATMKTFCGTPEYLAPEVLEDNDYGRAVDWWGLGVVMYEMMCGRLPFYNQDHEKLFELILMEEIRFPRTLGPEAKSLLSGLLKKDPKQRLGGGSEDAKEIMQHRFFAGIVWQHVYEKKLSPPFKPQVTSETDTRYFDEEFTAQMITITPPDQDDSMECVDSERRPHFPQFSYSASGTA
MKK1, sequence (Q02750 whole entry, species assumed): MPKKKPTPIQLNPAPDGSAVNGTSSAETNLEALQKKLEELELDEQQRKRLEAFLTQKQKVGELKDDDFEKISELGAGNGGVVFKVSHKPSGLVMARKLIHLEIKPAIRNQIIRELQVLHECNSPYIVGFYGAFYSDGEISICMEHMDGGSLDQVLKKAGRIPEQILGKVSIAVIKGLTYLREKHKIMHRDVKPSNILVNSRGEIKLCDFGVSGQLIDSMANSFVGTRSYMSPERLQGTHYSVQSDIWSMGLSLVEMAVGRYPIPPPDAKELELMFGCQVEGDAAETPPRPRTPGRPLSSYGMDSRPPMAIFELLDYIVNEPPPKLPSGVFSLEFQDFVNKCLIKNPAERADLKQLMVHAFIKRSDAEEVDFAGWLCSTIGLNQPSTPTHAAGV
RSK1, sequence (Q15418 whole entry, species assumed): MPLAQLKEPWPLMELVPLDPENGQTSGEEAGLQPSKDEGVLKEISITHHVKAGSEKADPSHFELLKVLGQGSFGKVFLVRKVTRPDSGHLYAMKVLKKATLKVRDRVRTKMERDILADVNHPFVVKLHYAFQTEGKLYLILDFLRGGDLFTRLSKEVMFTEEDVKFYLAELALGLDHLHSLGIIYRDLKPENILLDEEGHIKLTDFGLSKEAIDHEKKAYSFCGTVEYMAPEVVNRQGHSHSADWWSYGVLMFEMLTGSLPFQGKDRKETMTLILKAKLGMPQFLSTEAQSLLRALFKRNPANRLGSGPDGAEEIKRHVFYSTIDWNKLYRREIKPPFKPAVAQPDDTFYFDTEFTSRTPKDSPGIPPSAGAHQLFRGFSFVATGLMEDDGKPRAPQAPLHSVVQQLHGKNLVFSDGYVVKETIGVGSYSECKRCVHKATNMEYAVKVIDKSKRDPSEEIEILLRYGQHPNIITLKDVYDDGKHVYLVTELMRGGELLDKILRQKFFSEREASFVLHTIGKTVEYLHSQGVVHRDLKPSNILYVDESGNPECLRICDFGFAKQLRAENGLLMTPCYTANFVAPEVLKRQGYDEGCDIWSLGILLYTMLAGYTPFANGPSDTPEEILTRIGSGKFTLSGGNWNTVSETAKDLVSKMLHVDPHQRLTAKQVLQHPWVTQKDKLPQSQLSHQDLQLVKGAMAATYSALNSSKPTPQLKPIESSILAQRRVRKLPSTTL

| residual kinase activity, SGK1 (SGK1) | residual kinase activity, PKA (PKA) | residual kinase activity, JNK1 (JNK1) | residual kinase activity, PDK1 (PDK1) | residual kinase activity, PKBa (PKBa) | residual kinase activity, PRK2 (PRK2) | residual kinase activity, PKD1 (PKD1) | residual kinase activity, RSK1 (RSK1) | residual kinase activity, p38a MAPK (p38a MAPK) | residual kinase activity, ROCK 2 (ROCK 2) | residual kinase activity, PKCa (PKCa) | residual kinase activity, MKK1 (MKK1) | residual kinase activity, S6K1 (S6K1) | IC50 (DYRK1A) | SMILES |
| --- | --- | --- | --- | --- | --- | --- | --- | --- | --- | --- | --- | --- | --- | --- |
| 59 | 90 | 80 | 93 | 87 | 54 | 53 | 19 | 106 | 32 | 92 | 35 | 29 | – | CC(=O)Nc1ccc(C(=O)Nc2nc3ccc(O)cc3s2)cc1 [Compound 03-74] |
| – | – | – | – | – | – | – | – | – | – | – | – | – | 15.7 µM | CC(=O)Nc1nc2ccc(C(N)=O)cc2s1 [Compound 08-70] |
| – | – | – | – | – | – | – | – | – | – | – | – | – | 12.3 µM | COc1ccc2nc(NC(C)=O)sc2c1 [Compound 03-20] |

Reference: patent US10231954B2, “Neurodegenerative therapies” (LYTIX BIOPHARMA AS, priority 2014, dated 2019)
